Experimental data reported in PMC11279404, “Discovery of 1H-benzo[d]imidazole-(halogenated)Benzylidenebenzohydrazide Hybrids as Potential Multi-Kinase Inhibitors” (Pharmaceuticals, 2024).

Experiments:
caspase-3 = test: Apoptotic protein level by ELISA, caspase-3; type: cell-based, human; conditions: HepG2 cells, ELISA; control 99.904 ± 3.88; mean ± SD of triplicate
Protocol: (§1) To further elucidate the mechanism by which compound 6i induces cell death, the expression levels of key apoptotic proteins were assessed in the HepG2 cell line. […] Specifically, the levels of the pro-apoptotic proteins caspase-3 and Bax were markedly higher in the compound 6i-treated group compared with the control. […] Additional studies are warranted to elucidate the detailed molecular mechanisms underlying the apoptosis-inducing effects of compound 6i and to assess its therapeutic potential in relevant in vivo models.
(§2) Apoptotic protein levels for compound 6i were determined using an ELISA technique for caspase-3, BAX, and Bcl-2, applying a previously reported method.

[1] = test system: HCT-116 (human colon cancer cell line); test: MTT in vitro cytotoxicity, HCT-116; type: cell-based
EGFR = EGFR (Homo sapiens, UniProt P00533); test: In vitro protein kinase inhibition, EGFR
EGFR, sequence (P00533 25-1210): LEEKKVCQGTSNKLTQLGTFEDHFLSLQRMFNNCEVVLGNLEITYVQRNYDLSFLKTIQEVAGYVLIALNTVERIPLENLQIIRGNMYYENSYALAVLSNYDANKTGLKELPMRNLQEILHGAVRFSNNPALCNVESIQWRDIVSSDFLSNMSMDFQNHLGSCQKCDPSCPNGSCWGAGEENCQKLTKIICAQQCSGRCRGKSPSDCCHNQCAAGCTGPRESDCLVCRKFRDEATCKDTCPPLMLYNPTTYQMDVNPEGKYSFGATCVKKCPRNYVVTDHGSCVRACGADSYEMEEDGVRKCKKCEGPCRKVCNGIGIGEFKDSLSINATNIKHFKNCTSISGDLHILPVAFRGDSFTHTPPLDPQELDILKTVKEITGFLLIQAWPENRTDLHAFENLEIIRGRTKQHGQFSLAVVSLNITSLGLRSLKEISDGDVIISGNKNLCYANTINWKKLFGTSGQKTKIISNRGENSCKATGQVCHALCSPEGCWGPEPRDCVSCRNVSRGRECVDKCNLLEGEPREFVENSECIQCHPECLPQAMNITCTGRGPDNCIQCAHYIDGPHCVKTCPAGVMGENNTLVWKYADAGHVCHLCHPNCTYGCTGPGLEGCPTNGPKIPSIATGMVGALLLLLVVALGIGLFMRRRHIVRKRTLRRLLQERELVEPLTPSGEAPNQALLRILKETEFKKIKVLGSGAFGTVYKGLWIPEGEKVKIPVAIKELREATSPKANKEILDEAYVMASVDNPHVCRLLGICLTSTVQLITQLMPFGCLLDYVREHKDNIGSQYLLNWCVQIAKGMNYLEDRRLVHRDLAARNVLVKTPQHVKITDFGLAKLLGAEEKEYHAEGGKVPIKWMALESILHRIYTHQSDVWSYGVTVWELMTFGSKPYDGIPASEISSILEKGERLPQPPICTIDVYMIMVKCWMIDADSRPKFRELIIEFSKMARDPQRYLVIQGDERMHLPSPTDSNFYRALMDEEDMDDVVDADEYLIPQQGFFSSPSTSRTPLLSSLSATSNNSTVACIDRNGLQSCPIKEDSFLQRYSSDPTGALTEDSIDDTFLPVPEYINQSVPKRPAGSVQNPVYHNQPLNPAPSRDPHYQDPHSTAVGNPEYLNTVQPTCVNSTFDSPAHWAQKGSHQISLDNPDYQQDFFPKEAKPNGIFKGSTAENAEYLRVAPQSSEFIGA

AURKC = molecular target: T1, AURKC (Homo sapiens, UniProt Q9UQB9); test: In vitro protein kinase inhibition, AURKC
T1 sequence (Q9UQB9 1-309): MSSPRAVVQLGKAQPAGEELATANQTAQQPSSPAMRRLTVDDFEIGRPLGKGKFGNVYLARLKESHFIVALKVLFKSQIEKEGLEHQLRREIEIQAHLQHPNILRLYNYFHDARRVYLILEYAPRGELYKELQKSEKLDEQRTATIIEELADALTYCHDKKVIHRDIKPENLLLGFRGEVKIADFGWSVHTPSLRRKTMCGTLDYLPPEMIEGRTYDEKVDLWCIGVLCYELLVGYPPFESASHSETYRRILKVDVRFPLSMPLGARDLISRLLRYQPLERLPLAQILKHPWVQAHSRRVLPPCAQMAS

[2] = test system: MCF-7 (mammary gland breast cancer cell line); test: MTT in vitro cytotoxicity, MCF-7; type: cell-based, human
VEGFR2 = VEGFR2 (Homo sapiens, UniProt P35968); test: In vitro protein kinase inhibition, VEGFR2; type: biochemical; conditions: mean ± SD of triplicate
VEGFR2, sequence (P35968 20-1356): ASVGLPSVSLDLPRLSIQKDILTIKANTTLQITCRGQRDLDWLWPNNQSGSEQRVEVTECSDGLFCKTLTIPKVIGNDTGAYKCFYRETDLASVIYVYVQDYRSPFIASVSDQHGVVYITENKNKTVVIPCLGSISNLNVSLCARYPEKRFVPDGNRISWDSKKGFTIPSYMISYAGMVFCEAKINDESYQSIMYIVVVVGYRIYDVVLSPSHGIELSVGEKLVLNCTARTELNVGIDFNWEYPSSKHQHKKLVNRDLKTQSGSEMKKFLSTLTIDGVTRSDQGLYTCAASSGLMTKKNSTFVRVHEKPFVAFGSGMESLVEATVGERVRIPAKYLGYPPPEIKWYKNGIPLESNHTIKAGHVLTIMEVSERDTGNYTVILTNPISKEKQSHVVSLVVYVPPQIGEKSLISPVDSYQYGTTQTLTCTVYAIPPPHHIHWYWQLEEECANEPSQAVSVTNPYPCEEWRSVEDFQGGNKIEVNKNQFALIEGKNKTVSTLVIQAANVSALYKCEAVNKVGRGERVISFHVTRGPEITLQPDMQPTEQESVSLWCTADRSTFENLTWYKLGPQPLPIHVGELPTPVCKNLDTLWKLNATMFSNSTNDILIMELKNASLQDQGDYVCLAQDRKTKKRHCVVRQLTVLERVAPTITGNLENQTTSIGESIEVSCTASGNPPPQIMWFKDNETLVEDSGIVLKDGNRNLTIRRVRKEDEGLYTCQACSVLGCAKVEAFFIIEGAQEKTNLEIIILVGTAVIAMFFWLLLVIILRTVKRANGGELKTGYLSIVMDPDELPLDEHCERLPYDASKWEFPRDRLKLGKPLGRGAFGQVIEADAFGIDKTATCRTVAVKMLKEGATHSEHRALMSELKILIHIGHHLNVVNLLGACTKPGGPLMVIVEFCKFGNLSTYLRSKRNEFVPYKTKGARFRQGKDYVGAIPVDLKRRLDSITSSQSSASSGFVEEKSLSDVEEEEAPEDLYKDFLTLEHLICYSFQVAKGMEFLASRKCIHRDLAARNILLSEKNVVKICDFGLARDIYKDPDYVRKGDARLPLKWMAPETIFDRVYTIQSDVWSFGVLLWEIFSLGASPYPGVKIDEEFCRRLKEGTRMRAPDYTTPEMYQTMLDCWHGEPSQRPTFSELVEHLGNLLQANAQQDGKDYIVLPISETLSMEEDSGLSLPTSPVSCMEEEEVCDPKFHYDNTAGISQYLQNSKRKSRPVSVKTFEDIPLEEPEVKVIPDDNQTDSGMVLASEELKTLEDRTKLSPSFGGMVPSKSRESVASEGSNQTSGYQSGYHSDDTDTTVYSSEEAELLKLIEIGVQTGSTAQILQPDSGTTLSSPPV
Text: […]. […] […].

[3] = test system: cancer cell lines (HCT-116, HepG2, MCF-7); test: MTT in vitro cytotoxicity, summary across the cancer cell line panel; type: cell-based; conditions: Homo sapiens; summary over HCT-116, HepG2, MCF-7; read-out: IC50 values across the tested cancer cell lines
Protocol: The cytotoxic activities of compounds 6a-l were assessed using a standard MTT method, which was performed across three different cancer cell line models, namely human colon cancer (HCT-116), hepatocellular carcinoma (HepG2), mammary gland cancer (MCF-7), and normal (WI-38) cell lines. […] […]. Substitution at the 4-position, as in the case of compounds 6d, 6g, and 6j, also seems beneficial, with fluoro (6j) showing the best results. […]. Overall, the cytotoxicity data provide valuable insights into the structure–activity relationships of the synthesized compounds and can guide further optimization efforts to develop potential anticancer agents with improved potency and selectivity.
. The SI values represent the ratio of the IC50 values for the normal WI-38 cell line compared with the respective cancer cell lines, with higher SI values indicating greater selectivity for the cancer cells over normal cells. […]. The cytotoxic potential of compounds 6a-l was evaluated against a panel of cancer cell lines, including HCT-116, HepG2, and MCF-7, as well as a normal cell line, WI-38, using the reported methodology. The cell lines utilized in this study were obtained from the American Type Culture Collection (ATCC) through the Holding Company for Biological Products and Vaccines (VACSERA) in Cairo, Egypt. These included: 1. A human colon cancer cell line (HCT-116); 2. Hepatocellular carcinoma (HepG2)—a liver cancer cell line; 3. Mammary gland breast cancer (MCF-7); and 4. A human lung fibroblast (WI-38)—a normal cell line.

Bcl-2 = test: Apoptotic protein level by ELISA, Bcl-2; type: cell-based, human; conditions: HepG2 cells
mTOR = mTOR (Homo sapiens, UniProt P42345); test: In vitro enzyme inhibition, mTOR
HepG2 cells [4] = test: Cell cycle analysis (propidium iodide flow cytometry); type: cell-based, human
Text: Following the treatment, the cells were stained with propidium iodide and analyzed using flow cytometry to determine the cell cycle phase distribution. […] The quantitative data further substantiated this observation. […] It led to a marked accumulation of cells in the G1 phase, accompanied by a concomitant reduction in the proportion of cells in the S and G2/M phases. The cell cycle arrest effect observed with compound 6i may be a key mechanistic aspect contributing to its anticancer potential. The observed cell cycle arrest at the G1 phase is a common mechanism of action for many anti-cancer agents, as it can prevent cell division and proliferation, ultimately leading to cell cycle arrest and potentially inducing apoptosis or other forms of cell death.
The cell cycle distribution index (CDI) is a metric that quantifies the rate of cell proliferation, calculated as CDI = (G2/M + S)/[…], where the values represent the percentages of cells in each phase. In this study, the CDI values for the control and compound 6i-treated HepG2 cells were 0.91 and 0.39, respectively. […] Compound 6i was further evaluated for apoptosis analysis in HepG2 cell lines.

CDK2 = CDK2 (Homo sapiens, UniProt P24941); test: In vitro protein kinase inhibition, CDK2
Her2 = Her2 (Homo sapiens, UniProt P04626); test: In vitro protein kinase inhibition, Her2
Her2, sequence (P04626 23-1255): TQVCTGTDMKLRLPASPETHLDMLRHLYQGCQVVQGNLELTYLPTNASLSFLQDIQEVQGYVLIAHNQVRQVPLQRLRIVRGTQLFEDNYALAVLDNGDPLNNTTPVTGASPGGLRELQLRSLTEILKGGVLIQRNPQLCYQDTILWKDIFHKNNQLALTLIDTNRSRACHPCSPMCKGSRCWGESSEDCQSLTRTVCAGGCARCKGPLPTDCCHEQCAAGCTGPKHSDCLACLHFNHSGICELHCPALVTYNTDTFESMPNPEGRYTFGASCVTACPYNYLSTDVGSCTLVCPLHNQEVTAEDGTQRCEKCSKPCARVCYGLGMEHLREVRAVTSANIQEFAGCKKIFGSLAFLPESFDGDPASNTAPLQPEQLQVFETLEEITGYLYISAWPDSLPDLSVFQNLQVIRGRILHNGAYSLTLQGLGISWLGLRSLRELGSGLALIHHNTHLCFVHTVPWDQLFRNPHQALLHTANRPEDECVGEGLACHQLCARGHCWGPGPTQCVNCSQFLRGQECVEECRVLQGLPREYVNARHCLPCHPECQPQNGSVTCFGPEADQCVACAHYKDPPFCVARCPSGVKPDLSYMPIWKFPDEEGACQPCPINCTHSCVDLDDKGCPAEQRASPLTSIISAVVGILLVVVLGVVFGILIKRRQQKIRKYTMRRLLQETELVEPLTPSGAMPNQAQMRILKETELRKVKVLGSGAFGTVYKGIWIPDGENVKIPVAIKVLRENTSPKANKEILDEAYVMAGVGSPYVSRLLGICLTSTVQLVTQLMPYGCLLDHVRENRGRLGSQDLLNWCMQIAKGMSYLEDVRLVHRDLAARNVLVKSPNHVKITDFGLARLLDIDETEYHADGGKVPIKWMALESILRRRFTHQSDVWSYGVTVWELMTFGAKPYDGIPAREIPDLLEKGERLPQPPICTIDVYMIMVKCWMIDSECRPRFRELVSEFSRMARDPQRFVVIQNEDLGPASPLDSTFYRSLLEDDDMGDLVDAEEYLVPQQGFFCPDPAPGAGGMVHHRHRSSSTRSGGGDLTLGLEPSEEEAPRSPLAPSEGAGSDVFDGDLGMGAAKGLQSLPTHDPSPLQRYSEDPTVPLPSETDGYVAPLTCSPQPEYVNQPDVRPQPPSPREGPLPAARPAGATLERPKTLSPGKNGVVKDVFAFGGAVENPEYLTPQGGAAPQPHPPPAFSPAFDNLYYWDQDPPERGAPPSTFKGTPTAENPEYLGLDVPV

[5] = MTT in vitro cytotoxicity, normal WI-38; type: cell-based; conditions: human, WI-38 normal lung fibroblast cells, normal cell line, mean ± SD of triplicate
[6] = test system: HepG2 (hepatocellular carcinoma cell line); test: MTT in vitro cytotoxicity, HepG2; type: cell-based, human
HepG2 cells [7] = test: Annexin-V/propidium iodide double staining apoptosis assay; type: cell-based, human; conditions: HepG2 cells treated at IC50 concentration for 24 h
Protocol: To investigate the mode of cell death induced by the synthesized compound 6i, flow cytometry analysis was performed. […] Following the treatment, the cells were double-stained with Annexin V and propidium iodide (PI) to assess the levels of apoptosis and necrosis. The data presented in Table 4 reveal a significant decline in the percentage of viable cells in the compound 6i-treated group (63.93%) compared with the untreated control group (97.58%). […] Additionally, in the late stages of apoptosis, the percentage of apoptotic cells rose from 0.21% in the control group to 9.98% in the compound 6i-treated group. […] The apoptosis levels in the control HepG2 cell lines and the cells treated with compound 6i are shown in the graphical representation provided in Figure 3.
The apoptosis effect of compound 6i was studied using a previously reported method.

Bax = test: Apoptotic protein level by ELISA, Bax; type: cell-based, human; conditions: HepG2 cells
Protocol: as §1, §2

HDAC1 = HDAC1 (Homo sapiens, UniProt Q13547); test: In vitro enzyme inhibition, HDAC1; type: biochemical; conditions: mean ± SD of triplicate; read-out: In Vitro Protein Kinase Inhibition IC50 HDAC1
HDAC1, sequence (Q13547 whole entry): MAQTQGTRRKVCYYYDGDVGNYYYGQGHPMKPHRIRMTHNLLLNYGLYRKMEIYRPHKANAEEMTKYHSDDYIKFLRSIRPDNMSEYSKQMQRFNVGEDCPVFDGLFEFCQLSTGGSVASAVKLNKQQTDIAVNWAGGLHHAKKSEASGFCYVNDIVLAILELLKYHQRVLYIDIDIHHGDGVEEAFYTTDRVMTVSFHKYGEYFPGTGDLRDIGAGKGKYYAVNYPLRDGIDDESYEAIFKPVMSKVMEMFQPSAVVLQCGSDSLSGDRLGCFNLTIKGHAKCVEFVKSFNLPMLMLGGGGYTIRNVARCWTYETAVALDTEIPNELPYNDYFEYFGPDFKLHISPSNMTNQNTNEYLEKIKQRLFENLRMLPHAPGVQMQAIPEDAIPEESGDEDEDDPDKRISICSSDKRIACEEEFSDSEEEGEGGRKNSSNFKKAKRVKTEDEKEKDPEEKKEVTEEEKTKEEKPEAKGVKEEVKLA

IC50 (EGFR): 30.1 ± 0.03 nM
IC50 (AURKC): 74.5 ± 0.003 nM
IC50 (VEGFR2): 172.2 ± 0.006 nM
IC50 (mTOR): 152 ± 0.005 nM
IC50 (CDK2): 364 ± 0.011 nM
IC50 (Her2): 28.3 ± 0.001 nM
IC50 (HDAC1): 96.6 ± 0.003 nM
Structure (SMILES): O=C(N/N=C/c1cccc(F)c1)c1ccc(NCc2nc3ccccc3[nH]2)cc1 [6i, (E)-4-(((1H-benzo[d]imidazol-2-yl)methyl)amino)-N′-(3-fluorobenzylidene)benzohydrazide]
Protein Expression Caspase-3 (caspase-3): 388.497 ± 15.09 pg/mL
IC50 ([1]; Homo sapiens, HCT-116, MTT, mean ± SD of triplicate): 13400 ± 1200 nM
SI (Selectivity Index) HCT-116 ([1]; IC50 of WI-38 / IC50 of HCT-116): 4.20
IC50 ([2]; Homo sapiens, MCF7, MTT, mean ± SD of triplicate): 11600 ± 900 nM
SI (Selectivity Index) MCF-7 ([2]; IC50 of WI-38 / IC50 of MCF-7): 4.85
IC50 [3]: 7820 to 10200 nM
Bcl-2 level, fold lower compared with the control (Bcl-2): 7.5 fold
Protein Expression Bcl-2 (Bcl-2; ELISA, control 15.668 ± 0.53, mean ± SD of triplicate): 2.073 ± 0.07 pg/mL
Protein Expression Bcl-2 (Folds) (Bcl-2; relative to control (1)): 0.132 Folds
Cell Cycle Distribution Index (CDI) (HepG2 cells [4]; CDI = (G2/M + S)/(G0-G1), HepG2, IC50 concentration, 24 h, control 0.91): 0.39
DNA Content (%) %G2/M (HepG2 cells [4]; HepG2 cells treated at IC50 concentration for 24 h, control 12.84): 2.68%
DNA Content (%) %S (HepG2 cells [4]; HepG2 cells treated at IC50 concentration for 24 h, control 34.77): 25.19%
DNA Content (%) %G0-G1 (HepG2 cells [4]; HepG2 cells treated at IC50 concentration for 24 h, control 52.39): 72.13%
IC50 [5]: 56500 ± 3000 nM
IC50 ([6]; Homo sapiens, HepG2, MTT, mean ± SD of triplicate): 9390 ± 800 nM
SI (Selectivity Index) HepG2 ([6]; IC50 of WI-38 / IC50 of HepG2): 6.01
Apoptosis Late (HepG2 cells [7]; control 0.21): 9.98%
Apoptosis Early (HepG2 cells [7]; control 0.61): 22.07%
Necrosis (HepG2 cells [7]; control 1.6): 4.02%
Alive Cell (%) (HepG2 cells [7]; control 97.58): 63.93%
Protein Expression Bax (Bax; ELISA, control 71.075 ± 2.762, mean ± SD of triplicate): 513.731 ± 19.96 pg/mL
Protein Expression Bax (Folds) (Bax; relative to control (1)): 7.22 Folds
